Experimental data as given in US11028058B2, “Heterocyclic compounds as adenosine antagonists” (NUVATION BIO INC., priority 2017, dated 2021).
pIC50: −log10 of the molar value.

What follows are molecules tested against adenosine A2A receptor (Homo sapiens (Human), UniProt P29274) (assay: A2A adenosine receptor radioligand binding competition assay (filter plates)). Settings: 100 nM.
Protocol: Binding of selected compounds to the adenosine A2A, A1, A2B, and A3 receptors was tested using a binding competition assay.
The general protocol for the radioligand binding competition assay was as follows. Competition binding was performed in duplicate in the wells of a 96 well plate (Master Block, Greiner, 786201) containing binding buffer (optimized for each receptor), membrane extracts (amount of protein/well optimized for each receptor), radiotracer (final concentration optimized for each receptor), and test compound. Nonspecific binding was determined by co-incubation with 200-fold excess of cold competitor. The samples were incubated in a final volume of 0.1 mL at 25° C. for 60 minutes and then filtered over filter plates. Filters were washed six times with 0.5 mL of ice-cold washing buffer (optimized for each receptor) and 50 μL of Microscint 20 (Packard) were added on each filter. The filter plates were sealed, incubated 15 min on an orbital shaker and scintillation counted with a TopCount for 30 sec/filter.
(§1) For the A2A adenosine receptor radioligand binding assay, the following modifications were made to the general protocol. GF/C filters (Perkin Elmer, 6005174), presoaked in 0.01% Brij for 2 h at room temperature were used. Filters were washed six times with 0.5 mL of ice-cold washing buffer (50 mM Tris pH 7.4) and 50 μL of Microscint 20 (Packard) was added in each well. The plates were then incubated for 15 min on an orbital shaker and then counted with a TopCount™ for 1 min/well. Another radioligand binding assay was used to evaluate the binding affinity for the adenosine A2A receptor assay was performed in duplicate in the wells of a 384 plate. Assay buffer contained DPBS 500 mM, MgCl2 0.1 mM, and 1% DMSO. Membrane-bead suspension was prepared by mixing 25.98 μL of human adenosine A2A membrane preparation (Perkin Elmer, RBHA2AM400UA) at 33.4 μg/mL, 28 μL of ADA at 20 μg/mL, and 932 μL of SPA beads at 3.33 mg/mL) and incubated the mixture for 20 min at room temperature. Mixed 20 μL of radiotracer (^3H-SCH 58261) at 15 nM to each well containing test articles at various concentrations and centrifuge the plate at 1000 rpm for 1 minute. Added 30 μL of the membraine-bead suspension to each well. Sealed the plates and incubated for 1 hr at room temperature with vigorous mixing on a plate mixer. Plates were read on Microbeta^2 (Perkin Elmer, 2450-0010).

Chain of adenosine A2A receptor (P29274 whole entry): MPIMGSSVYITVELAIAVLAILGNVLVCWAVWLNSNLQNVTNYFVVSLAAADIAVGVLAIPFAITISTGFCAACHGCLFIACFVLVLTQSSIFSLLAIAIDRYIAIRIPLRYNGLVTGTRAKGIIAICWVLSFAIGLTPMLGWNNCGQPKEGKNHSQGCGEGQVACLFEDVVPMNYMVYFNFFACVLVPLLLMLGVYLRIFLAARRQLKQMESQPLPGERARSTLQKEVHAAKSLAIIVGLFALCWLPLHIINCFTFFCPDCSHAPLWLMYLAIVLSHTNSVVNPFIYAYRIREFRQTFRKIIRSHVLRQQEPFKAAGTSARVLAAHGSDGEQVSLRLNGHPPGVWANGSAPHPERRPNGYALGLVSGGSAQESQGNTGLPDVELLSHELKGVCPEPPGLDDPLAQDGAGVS

Compound	A2A radioligand binding competition assay % residual binding @ 100 nM
Nc1cnc(-c2cc(Cl)c(O)c(Cl)c2)c(-c2ccccc2)n1 [Compound 1.2, 4-(5-amino-3-phenylpyrazin-2-yl)-2,6-dichlorophenol]	ND/ND/ND/62%
CC(=O)Nc1cnc(-c2ccc(O)c(Cl)c2)c(-c2ccccc2)n1 [Compound 1.3, N-(5-(3-chloro-4-hydroxyphenyl)-6-phenylpyrazin-2-yl)acetamide]	ND/ND/ND/57%
Nc1cnc(-c2ccc3[nH]cnc3c2)c(-c2ccccc2)n1 [Compound No. 1.10, 5-(1H-benzo[d]imidazol-6-yl)-6-phenylpyrazin-2-amine]	77%
Nc1cnc(-c2cc(Cl)c3[nH]cnc3c2)c(-c2ccccc2)n1 [Compound No. 1.13, 5-(7-chloro-1H-benzo[d]imidazol-5-yl)-6-phenylpyrazin-2-amine]	83%

Same assay, conditions: 300 nM

Compound	A2A radioligand binding competition assay % residual binding @ 300 nM
Nc1cnc(-c2ccc(O)cc2)c(-c2ccccc2)n1 [Compound No. 1.7, 4-(5-amino-3-phenylpyrazin-2-yl)phenol]	ND/ND/100/ND %
Nc1cnc(-c2ccc(O)c(Cl)c2)c(-c2ccco2)n1 [Compound No. 1.8, 4-(5-amino-3-(furan-2-yl)pyrazin-2-yl)-2-chlorophenol]	ND/ND/39/ND %
Nc1cnc(-c2ccc3[nH]cnc3c2)c(-c2ccccc2)n1 [Compound No. 1.10, 5-(1H-benzo[d]imidazol-6-yl)-6-phenylpyrazin-2-amine]	70%
N#Cc1cc(-c2ncc(N)nc2-c2ccccc2)ccc1O [Compound No. 1.11, 5-(5-amino-3-phenylpyrazin-2-yl)-2-hydroxybenzonitrile]	ND/ND/126/ND %
Nc1cnc(-c2ccc3ncccc3c2)c(-c2ccccc2)n1 [Compound No. 1.12, 6-phenyl-5-(quinolin-6-yl)pyrazin-2-amine]	66%
Nc1cnc(-c2cc(Cl)c3[nH]cnc3c2)c(-c2ccccc2)n1 [Compound No. 1.13, 5-(7-chloro-1H-benzo[d]imidazol-5-yl)-6-phenylpyrazin-2-amine]	69%

Same assay, conditions: 1000 nM

Compound	A2A radioligand binding competition assay % residual binding @ 1000 nM [%]
Nc1cnc(-c2ccc3[nH]cnc3c2)c(-c2ccccc2)n1 [Compound No. 1.10, 5-(1H-benzo[d]imidazol-6-yl)-6-phenylpyrazin-2-amine]	64
Nc1cnc(-c2ccc3ncccc3c2)c(-c2ccccc2)n1 [Compound No. 1.12, 6-phenyl-5-(quinolin-6-yl)pyrazin-2-amine]	12
Nc1cnc(-c2cc(Cl)c3[nH]cnc3c2)c(-c2ccccc2)n1 [Compound No. 1.13, 5-(7-chloro-1H-benzo[d]imidazol-5-yl)-6-phenylpyrazin-2-amine]	17

Same assay, conditions: 3000 nM

Compound	A2A radioligand binding competition assay % residual binding @ 3000 nM
N#Cc1nc(-c2ccc3ncccc3c2)c(-c2ccccc2)nc1N [Compound 1.19, 3-amino-5-phenyl-6-(quinolin-6-yl)pyrazine-2-carbonitrile]	4/ND/ND/ND %
Nc1cnc(-c2ccc3[nH]cnc3c2)c(-c2ccccc2)n1 [Compound No. 1.10, 5-(1H-benzo[d]imidazol-6-yl)-6-phenylpyrazin-2-amine]	39%
Nc1cnc(-c2ccc3ncccc3c2)c(-c2ccccc2)n1 [Compound No. 1.12, 6-phenyl-5-(quinolin-6-yl)pyrazin-2-amine]	12%
Nc1cnc(-c2cc(Cl)c3[nH]cnc3c2)c(-c2ccccc2)n1 [Compound No. 1.13, 5-(7-chloro-1H-benzo[d]imidazol-5-yl)-6-phenylpyrazin-2-amine]	18%

These molecules were tested against human adenosine A2A membrane preparation (Homo sapiens (Human), UniProt P29274) (assay: Adenosine A2A receptor radioligand binding assay (SPA beads, 3H-SCH 58261, 384 plate)). Settings: Table B1-2.
Protocol: as §1

Chain of human adenosine A2A membrane preparation (P29274 whole entry): as above

Compound	pIC50
Cc1ncc(-c2nc(N)cnc2-c2ccc3ncccc3c2)s1 [Compound No. 1.288, 6-(2-methylthiazol-5-yl)-5-(quinolin-6-yl)pyrazin-2-amine]	7.26
Cc1ccn(-c2nc(N)c(C#N)nc2-c2ccc3ncccc3c2)n1 [Compound No. 1.290, 3-amino-5-(3-methyl-1H-pyrazol-1-yl)-6-(quinolin-6-yl)pyrazine-2-carbonitrile]	8.48

Same assay, conditions: read-out: A2a binding % inh @ 1 nM

Compound	inhibition at 0.001 µM [%]
Cc1ncc(-c2nc(N)cnc2-c2ccc3ncccc3c2)s1 [Compound No. 1.288, 6-(2-methylthiazol-5-yl)-5-(quinolin-6-yl)pyrazin-2-amine]	42
Cc1ccn(-c2nc(N)c(C#N)nc2-c2ccc3ncccc3c2)n1 [Compound No. 1.290, 3-amino-5-(3-methyl-1H-pyrazol-1-yl)-6-(quinolin-6-yl)pyrazine-2-carbonitrile]	57

Same assay, conditions: read-out: A2a binding % inh @ 10 nM

Compound	inhibition at 0.01 µM [%]
Cc1ncc(-c2nc(N)cnc2-c2ccc3ncccc3c2)s1 [Compound No. 1.288, 6-(2-methylthiazol-5-yl)-5-(quinolin-6-yl)pyrazin-2-amine]	83
Cc1ccn(-c2nc(N)c(C#N)nc2-c2ccc3ncccc3c2)n1 [Compound No. 1.290, 3-amino-5-(3-methyl-1H-pyrazol-1-yl)-6-(quinolin-6-yl)pyrazine-2-carbonitrile]	85

Same assay, conditions: read-out: A2a binding % inh @ 100 nM

Compound	inhibition at 0.1 µM [%]
Cc1ncc(-c2nc(N)cnc2-c2ccc3ncccc3c2)s1 [Compound No. 1.288, 6-(2-methylthiazol-5-yl)-5-(quinolin-6-yl)pyrazin-2-amine]	86
Cc1ccn(-c2nc(N)c(C#N)nc2-c2ccc3ncccc3c2)n1 [Compound No. 1.290, 3-amino-5-(3-methyl-1H-pyrazol-1-yl)-6-(quinolin-6-yl)pyrazine-2-carbonitrile]	89

Same assay, conditions: read-out: A2a binding % inh @ 1000 nM

Compound	inhibition at 1 µM [%]
Cc1ncc(-c2nc(N)cnc2-c2ccc3ncccc3c2)s1 [Compound No. 1.288, 6-(2-methylthiazol-5-yl)-5-(quinolin-6-yl)pyrazin-2-amine]	84
Cc1ccn(-c2nc(N)c(C#N)nc2-c2ccc3ncccc3c2)n1 [Compound No. 1.290, 3-amino-5-(3-methyl-1H-pyrazol-1-yl)-6-(quinolin-6-yl)pyrazine-2-carbonitrile]	89

What follows are molecules tested against T1, HEK-293 cells expressing human recombinant adenosine A2A receptor (Homo sapiens (Human), UniProt P29274) (assay: cAMP assay, Assay 1 (HTRF kit)). Settings: HEK293, 100 nM, read-out: A2a cAMP (% inh @ 100 nM).
Assay type: cell-based
Protocol: (§2) The functional activity of compounds was tested using one of the two assays to detect the present of cAMP. Activation of G-protein coupled receptors (such as A2A) results in activation of adenylcyclase which converts ATP into cAMP which is used as a downstream signaling molecule. Therefore, molecules which act as GPCR (or specifically A2A receptor) antagonists cause a decrease in intracellular cAMP concentration.
(§3) Both assays used HEK-293 cells expressing human recombinant adenosine A2A receptor were grown prior to the test in media without antibiotic.
12 μL of cells were mixed with 6 μL of the test compound at increasing concentrations and then incubated for 10 min. Thereafter 6 μL of the reference agonist was added at a final concentration corresponding to the historical EC80. The plates were then incubated for 30 min at room temperature. After addition of the lysis buffer and 1 hour incubation, cAMP concentrations were estimated, according to the manufacturer specification, with the HTRF® kit.

T1 sequence (P29274 whole entry): as above

Compound	inhibition at 0.1 µM [%]
Cc1nc2cc(-c3ncc(N)nc3-c3ccccc3)ccc2[nH]1 [1.9, 5-(2-methyl-1H-benzo[d]imidazol-5-yl)-6-phenylpyrazin-2-amine]	49
Nc1cnc(-c2cc(Cl)c(O)c(Cl)c2)c(-c2ccccc2)n1 [Compound 1.2, 4-(5-amino-3-phenylpyrazin-2-yl)-2,6-dichlorophenol]	100
CC(=O)Nc1cnc(-c2ccc(O)c(Cl)c2)c(-c2ccccc2)n1 [Compound 1.3, N-(5-(3-chloro-4-hydroxyphenyl)-6-phenylpyrazin-2-yl)acetamide]	100
N#Cc1nc(-c2ccc3ncccc3c2)c(-c2ccccc2)nc1N [Compound 1.19, 3-amino-5-phenyl-6-(quinolin-6-yl)pyrazine-2-carbonitrile]	100
Nc1cnc(-c2ccc3[nH]ccc3c2)c(-c2ccccc2)n1 [Compound No. 1.4, 5-(1H-indol-5-yl)-6-phenylpyrazin-2-amine]	1.4
CC(C)(C)c1cc(-c2ncc(N)nc2-c2ccccc2)ccc1O [Compound No. 1.6, 4-(5-amino-3-phenylpyrazin-2-yl)-2-tert-butylphenol]	47
Nc1cnc(-c2ccc(O)cc2)c(-c2ccccc2)n1 [Compound No. 1.7, 4-(5-amino-3-phenylpyrazin-2-yl)phenol]	100
Nc1cnc(-c2ccc(O)c(Cl)c2)c(-c2ccco2)n1 [Compound No. 1.8, 4-(5-amino-3-(furan-2-yl)pyrazin-2-yl)-2-chlorophenol]	100
Nc1cnc(-c2ccc3[nH]cnc3c2)c(-c2ccccc2)n1 [Compound No. 1.10, 5-(1H-benzo[d]imidazol-6-yl)-6-phenylpyrazin-2-amine]	100
N#Cc1cc(-c2ncc(N)nc2-c2ccccc2)ccc1O [Compound No. 1.11, 5-(5-amino-3-phenylpyrazin-2-yl)-2-hydroxybenzonitrile]	100
Nc1cnc(-c2ccc3ncccc3c2)c(-c2ccccc2)n1 [Compound No. 1.12, 6-phenyl-5-(quinolin-6-yl)pyrazin-2-amine]	94
Nc1cnc(-c2cc(Cl)c3[nH]cnc3c2)c(-c2ccccc2)n1 [Compound No. 1.13, 5-(7-chloro-1H-benzo[d]imidazol-5-yl)-6-phenylpyrazin-2-amine]	51

Each molecule was assayed against T1, HEK-293 cells expressing human recombinant adenosine A2A receptor (assay: cAMP assay, Assay 2 (Eu-cAMP tracer / ULight-anti-cAMP)). Settings: Assay 2.
Assay type: cell-based
Protocol: as §2, §3
Assay 2 (Table B2-2): 100 nL of test articles at 100× of final concentration were transferred to assay plate by Echo. Cells were washed twice with 5 mL of PBS […]. After aspirating the PBS and adding 1.5 mL versine, cells were incubated at 37° C. for 2-5 min. After centrifugation, 4 mL of medium was added and adjusted cell density to 5,000 cells/well with Stimulation Buffer. 10 μL of cells were aliquoted to the assay plate, centrifuged at 1000 rpm for 1 minute, and incubated for 60 minutes at room temperature. 5 μL 4×Eu-cAMP tracer solution and 5 μL 4×Ulight™-anti-cAMP solution were added to assay plate, followed by centrifugation and 60-minute incubation at room temperature. Plates were read on EnVision.

Compound	pIC50
Cc1ncc(-c2nc(N)cnc2-c2ccc3ncccc3c2)s1 [Compound No. 1.288, 6-(2-methylthiazol-5-yl)-5-(quinolin-6-yl)pyrazin-2-amine]	5.98
Cc1ccn(-c2nc(N)c(C#N)nc2-c2ccc3ncccc3c2)n1 [Compound No. 1.290, 3-amino-5-(3-methyl-1H-pyrazol-1-yl)-6-(quinolin-6-yl)pyrazine-2-carbonitrile]	7.45
